In US20030133881A1, “Formulations for the remineralization of teeth” (priority 2001, published 2003):

What was measured:
[1] = tested on: microflora from primary root carious lesions (PRCL); experiment: Ozone effect on microflora from primary root caries ex-vivo; type: cell-based; details: for Mean ± SE of Total cfu (Log10): After 10 Seconds of Ozone Treatment
From the text: Primary root carious lesions (PRCL) are a major clinical problem. The aim of this study was to establish if ozone could achieve effective microbial killing in PRCL. An ozone producing generator (Purezone Ltd., Ipswich, U.K.) was used in this ex-vivo study assessing the use of ozone on PRCL. In this study, soft PRCL requiring restoration were used as these are the most severe type of lesion found in humans. 20 freshly extracted teeth with PRCL requiring restoration were used. After plaque removal using a hand held standard fine nylon fiber sterile toothbrush with sterile water as a lubricant to cleanse the surface, each tooth was then isolated using sterile cotton wool rolls and dried using a dry sterile cotton wool roll. […] Each sample was weighed and immediately placed in 1 ml of Fastidious Anaerobe Broth (FAB). To each 1 ml of FAB containing a biopsy o carious or ozone treated carious dentine, sterile glass beads were added. They were vortexed for 30 seconds to facilitate the extraction of any micro-organisms from the carious dentine and disperse any aggregates.
The procedure of Example 2 was repeated except that ozonized water was applied to the lesion for 20 seconds.

[2] = tested on: Streptococcus sobrinus; TH 21; experiment: Ozone on S. sobrinus on saliva coated glass beads; details: 10 seconds of ozone applied to saliva coated glass beads
Procedure: In study 2, 40 sterile saliva coated glass beads were put into bijoux bottles with 3 mls of Todd Hewitt broth for control and test groups. S. sobrinus and S. mutans were inoculated and incubated anaerobically overnight. Each glass bead was washed with 2 mls of PBS. Immediately, 10 seconds of ozone was applied to the glass beads in the test groups. Subsequently, each glass bead in the test and control groups was placed in 3 mls of Todd Hewitt broth with six more sterile glass beads and were vortexed for 30 seconds. After decimal dilutions, 100 ml aliquots were spread on blood agar plates supplemented with 5% (V/V) horse blood and placed in an anaerobic chamber at 37° C. for two days. The number of each colony type was counted and calculated.

O=[O+][O-] [ozone]
percentage of micro-organisms killed ([1]; 10 seconds of ozone, PRCL ex-vivo): more than 99%
Mean ± SE of Total cfu (Log10) ([1]; soft PRCL from extracted teeth): 3.57±0.37 Log10
Mean ± SE of Total cfu (Log10) ([1]; soft PRCL from extracted teeth, listed as Ozone): 3.57 ± 0.37 Log10
Total cfu (log10), mean±SE ([1]; after 20 seconds of ozone treatment, soft PRCL from extracted teeth): 3.77±0.42 log10
colony count (log10), Mean±SE [2]: 1.09±0.36 log10
